“And” between values parts separate entries of the source, which are not always exact repeats. Equal values may be shown once.

In one data set the test system is CTG-0791. Briefly: Antitumor activity in ovarian cancer PDX model CTG-0791. Format: in vivo, mouse. Particulars: CTG-0791 (carboplatin and paclitaxel-resistant); 35 days until end of test; doses as Table 3.
In the next data set the test system is CTG-1649. Description: Antitumor activity in ovarian cancer PDX model CTG-1649. It is filed as in vivo, mouse. To be noted: 40 days until end of test, doses as Table 3.
Another data set has as its system CTG-0964. Description: Antitumor activity in ovarian cancer PDX model CTG-0964. It is filed as in vivo, mouse. Particulars: CTG-0964 (carboplatin and paclitaxel-resistant); 35 days until end of test; doses as Table 3.
Another data set has as its system CTG-1602. Briefly: Antitumor activity in ovarian cancer PDX model CTG-1602. Format: in vivo, mouse. To be noted: 14 days until end of test, doses as Table 3.
The test system of another data set is CTG-0958. Briefly: Antitumor activity in ovarian cancer PDX model CTG-0958. To be noted: 52 days until end of test, doses as Table 3. Format: in vivo, mouse.
Another data set concerns KYSE-70 cells. Briefly: Antitumor activity in mouse xenograft model of human esophageal cancer (KYSE-70). It is filed as in vivo. Particulars: KYSE-70 xenograft, combination of both.
The test system of a further data set is PC-3 cells. Briefly: Antitumor activity in mouse xenograft model of human prostate cancer (PC-3). Particulars: PC-3 xenograft, combination of both.
For another data set, the system named is CTG-1809. Description: Antitumor activity in ovarian cancer PDX model CTG-1809. It is filed as in vivo, mouse. Particulars: CTG-1809 (carboplatin and paclitaxel-resistant); 36 days until end of test; doses as Table 3.
A further data set deals with CTG-1395. Briefly: Antitumor activity in ovarian cancer PDX model CTG-1395. It is filed as in vivo, mouse. To be noted: 33 days until end of test, doses as Table 3.
The next data set has as its system CTG-1086. Description: Antitumor activity in ovarian cancer PDX model CTG-1086. Format: in vivo, mouse. To be noted: 28 days until end of test, doses as Table 3.
[1] abbreviates: BI 853520 50 mg/kg qd, docetaxel 10 mg/kg q7d.
The mark [2] stands for this setting: BI 853520 25 mg/kg qd, docetaxel 7.5 mg/kg q7d.

Method for CTG-0791: (§1) Body weights (at start of dosing) were approximately 20 grams. […] Immunocompromised female mice were housed in HEPA ventilated cages (Innocage® IVC, Innovive USA) at 68-74° F. (20-23° C.) and 30-70% humidity under a 12-hour light/12-hour dark cycle. […] Animals with >10% body weight loss compared to day 0 received DietAel 76A (ClearH2O®, Portland, ME) for free. There were 3 mice in each group.
(§2) Mice were implanted with tumor cells from the ChampionsTumorGraft® ovarian model, which was established from patients previously treated with platinum-based therapy. After tumors reached 1000-1500 mm^3, they were collected, and tumor fragments SCs were implanted in the left flank of female pre-study mice. Each study animal was implanted with a specific passage batch. Tumor volume was measured twice a week with calipers to monitor tumor growth, and tumor volume (TV) was calculated using the formula (0.52×[length×width^2]). […] After initiation of dosing, animals were weighed daily using a digital scale and TV was measured twice weekly. […]
(§3) Inhibitory effect on tumor growth was determined by calculating TGI (100%×[1−(final MTV−initial MTV of the treatment group)/(final MTV−initial MTV of the control group)]). […]
(§4) CR: no TV could be detected (<4×4 mm^2), in 2 consecutive measurements […]
Method for CTG-0958: as §1, §2, §3, §4
Method for CTG-0964: as §1, §2, §3, §4
Method for CTG-1086: as §1, §2, §3, §4
Method for CTG-1395: as §1, §2, §3, §4
Method for CTG-1602: as §1, §2, §3, §4
Method for CTG-1649: as §1, §2, §3, §4
Method for CTG-1809: as §1, §2, §3, §4

With `COc1cc(C(=O)NC2CCN(C)CC2)c(F)cc1Nc1ncc(C(F)(F)F)c(Oc2cccc3c2C(=O)N(C)C3)n1` [BI 853520, 2-fluoro-5-methoxy-4-[(4-(2-methyl-3-oxo-2,3-dihydro-1H-isoindole-4-oxy)-5-trifluoromethyl-pyrimidin-2-yl)amino]-N-(1-methyl-piperidin-4-yl)benzamide], the “TGI (%)” value in the data set on CTG-0791 is −21%; in the data set with CTG-1649, 71%; in the data set on CTG-0964 it was 66%; in the data set on CTG-1602, −1%; in the data set with CTG-0958, 99%; in the data set with CTG-1809, −58%. Also, the “TGI (%)” value in the data set with CTG-1395 is on record as 41%; with CTG-1086, 39%. Further, the Median tumor volume in the data set with KYSE-70 cells (day 42, BI 853520 50 mg/kg qd by gavage, docetaxel 10 mg/kg q7d i.v.) was determined as 497 mm^3; with PC-3 cells (day 35 (withdrawal on day 28), BI 853520 25 mg/kg qd by gavage, docetaxel 7.5 mg/kg q7d i.v.), 316 mm^3. Further, the “Antitumor effect (in words)” value is listed as “no inhibitory effect on tumor growth” with KYSE-70 cells (setting [1]) and “certain inhibitory effect on tumor growth” with PC-3 cells (setting [2]). Moreover, the results for the “Change in median body weight” value in the data set with KYSE-70 cells (setting [1]) and with PC-3 cells (setting [2]) were 8.8% and 2.4%, respectively. The TGI in the data set on KYSE-70 cells (setting [1]) is 42%; with PC-3 cells (setting [2]) it was 66%. Also, the “Tumor regression (animals with regression/animals in group)” value is 1 of the 7 and 1/7 in the data set with KYSE-70 cells (setting [1]); 0/7 in the data set with PC-3 cells (setting [2]).
